Laboratory results published in US20070116743A1, “Dietary supplement enhancing the muscular energy metabolism, comprising an alkanoyl carnitine and ribose” (Sigma-Tau Industrie Farmaceutiche Riunite S.p.A., priority 2000, published 2007).

How the values were obtained:
[1] = system: papillary muscle of rabbit heart; assay: Test of ATP concentrations in papillary muscle of heart subjected to anoxia; type: in vivo, New Zealand rabbits; conditions: summary of Table 1
Text: Test of ATP Concentrations in Heart Subjected to Anoxia In this test the technique adopted was the one using papillary muscle of rabbit heart perfused and subjected to anoxia which, as is known, leads to an impoverishment of its ATP energy reserves. […] At the end of the third day of treatment, all the animals were sacrificed and their hearts excised. Sections of papillary muscle measuring 1 mm in diameter and 4-5 mm in thickness were isolated from the excised hearts. The isolated papillary muscle was perfused in a thermostatic bath with a saturated 100% O2 solution. The anoxic state was obtained by introducing 100% N2 instead of O2 into the bath. For the measurement of the ATP concentrations in the […] muscle the method described by […] was adopted ([…]. Methods in Enzymology 111 N.Y. Acad. Press., 879, 1957).

[2] = system: ventricular arrhythmias induced by left coronary ligation in the rat; assay: Experimental myocardial anoxia test: ventricular arrhythmias induced by left coronary ligation; type: in vivo; conditions: for N. of ectopic contractions during 30 minutes after ligation / Start of arrhythmias after: rat, left coronary ligation, slow injection into left ventricle 15 minutes before ligation (100 mg/kg each agent; carnitine combination 25 mg/kg per component); for Reduction in number of ectopic contractions compared to controls (in words): summary of Table 2
Text: Experimental Myocardial Anoxia Test
Adopting the technique described by Selych (Selych et al., Angiology, 11, 398, 1960) and modified by Clark (Clark C., J. Pharmacol. Methods, 3, 357, 1980), these tests were used to evaluate the protective activity of isovaleryl L-carnitine, propionyl L-carnitine, carnitine combination, ribose and various combinations of the same against ventricular arrhythmias induced by left coronary ligation in the rat.
Coronary occlusion and the resulting myocardial anoxia lead, after 5-8 minutes, to the onset of arrhythmias. In these tests, ventricular ectopic contractions were counted for a period of 30 minutes after ligation both in control rats and in rats that had received slow injections into the left ventricle, 15 minutes before ligation, of a solution containing isovaleryl L-carnitine alone (100 mg/kg), propionyl L-carnitine alone (100 mg/kg), or carnitine combination alone consisting of propionyl L-carnitne (25 mg/kg), acetyl L-carnitine (25 mg/kg) and isovaleryl L-carnitine (25 mg/kg) or ribose alone (100 mg/kg), or a combination of ribose plus isovaleryl L-carnitine or propionyl L-carnitine or a combination of ribose plus carnitine combination at the doses described above.

**Q.** Which results are given for `O=C[C@H](O)[C@H](O)[C@H](O)CO` [Ribose]?
**A.** Protection of ATP in papillary muscle against anoxia (in words) [1]: partly protecting; N. of ectopic contractions during 30 minutes after ligation [2]: 855 ± 110; Start of arrhythmias after [2]: 5 to 7 min; Reduction in number of ectopic contractions compared to controls (in words) [2]: only slight reductions

**Q.** Which “Protection of ATP in papillary muscle against anoxia (in words)” value [1] does the source give for `CCC(=O)O[C@H](CC(=O)[O-])C[N+](C)(C)C` [Propionyl L-carnitine] here?
**A.** partly protecting

**Q.** What about the “N. of ectopic contractions during 30 minutes after ligation” value [2] of the same compound?
**A.** 830 ± 86

**Q.** What about the “Start of arrhythmias after” value [2] of the same compound?
**A.** 5 to 8 min

**Q.** And the “Reduction in number of ectopic contractions compared to controls (in words)” value [2]?
**A.** only slight reductions

**Q.** `CC(C)CC(=O)O[C@H](CC(=O)[O-])C[N+](C)(C)C` [Isovaleryl L-carnitine] was tested. Which “Protection of ATP in papillary muscle against anoxia (in words)” value [1] did it give?
**A.** partly protecting

**Q.** And the “N. of ectopic contractions during 30 minutes after ligation” value [2]?
**A.** 860 ± 75

**Q.** What about the “Start of arrhythmias after” value [2] of the same compound?
**A.** 5 to 7 min

**Q.** What about the “Reduction in number of ectopic contractions compared to controls (in words)” value [2] of the same compound?
**A.** only slight reductions
